Experiment [1] relates to Male ICR mice. Description: Forced swimming test (FST) in mice. The note with it: oral once daily, 26 mg/kg. Type of experiment: in vivo. An excerpt: A major symptom of depression is decrease of motivational behaviors. In the FST model, the mice were forced to swim in a restricted space. First, they struggle in attempt to escape, which is a motivational behavior. After a period of time, the mice started to show occasional immobility, representing a “despair” mental state. The immobility is regarded as “failure to adapt to stress” and can be served as an indicator of the level of depression. The effectiveness of anti-depression drugs could be derived by measuring the duration of immobility after the mice had been forced to swim for a period of time. The model is sensitive to anti-depression drugs and is widely adopted as a means to screen such drugs. (Porsolt et al., 1977)
(§1) Male ICR mice (26±2 g) were used. The mice were housed in polycarbonate cages. […]
(§2) The animals were deprived of food but not water for 1.5 h prior to drug administration of. […] The volume of the suspension administered was based on body weight measured immediately prior to each dose, respectively. […]
The studies were carried out on mice according to the method of Porsolt (Porsolt, et al., 1977). […] The duration of immobility time was measured during the final 4 min interval of the test. […]
(§3) All data were expressed as mean±SEM, and analyzed using one-way analysis of variance (ANOVA). […]

Experiment [2] concerns Male ICR mice. Description: Tail suspension test (TST) in mice. The note with it: oral once daily, 26 mg/kg. The experiment is classed as in vivo.
Text: A major symptom of depression is decrease of motivational behaviors. In the TST model, the tail-suspended mice struggle in attempt to overcome the abnormal body positions, which is a motivational behavior. After a period of time, the mice started to show occasional immobility, representing a “despair” mental state. The immobility is regarded as “failure to adapt to stress” and can be served as an indicator of the level of depression. The effectiveness of anti-depression drugs could be derived by measuring the duration of immobility after the mice had been tail-suspended for a period of time. The model is sensitive to anti-depression drugs and is widely adopted as a means to screen such drugs. (Steru L, Chermat R, Thierry B, Simon P. 1985.)
as §1, §2
The tail suspension test was based on the method of Steru (Steru, et al., 1985). […] The duration of immobility time was recorded during the final 4 min interval of the test. […]
as §3

Molecules are shown by their SMILES. Where a name gives a salt, the structure may show the parent alone.

Here are results for 1 compound from patent US20060147569A1, “Anti-depression formulations” (priority 2005, published 2006).

Turning to `CNCCC(Oc1ccc(C(F)(F)F)cc1)c1ccccc1` (stereo not shown) [Fluoxetine, Fluoxetine Hydrochloride], the Duration of immobility is listed as 67.6 ± 10.2 s in the experiment on Male ICR mice [1] (3 days), 67.1 ± 8.9 s in the experiment with Male ICR mice [1] (7 days), 23.2 ± 5.2 s in the experiment with Male ICR mice [2] (3 days) and 28.8 ± 6.4 s with Male ICR mice [2] (7 days).
